Experimental findings from US20240272165A1, “A METHOD TO IDENTIFY EXCEPTIONAL ANTI-TUMOR BENEFIT FROM BRAF TARGETED THERAPIES” (The Brigham and Women's Hospital, priority 2021, published 2024) are described below.

Each structure is given as a SMILES string.

The subject of one data set is Malme3M. Put plainly: growth rate effect of drugs in sgGAPDHS genome-edited cells versus control. The format is cell-based. Conditions: spCas9/sgGAPDHS genome-editing. An excerpt:
FIGS. 8A-8C. GAPDHS is required for BRAF inhibitor sensitivity in vitro. Lentiviral spCas9/sgGAPDHS genome-editing in Malme3M 8A) reduces protein levels (WB) but not signaling consequences following vemurafenib or PD-0325901. 8B) reduction in the inherent NAD+/NADH ratio is seen, but not treatment affected changes; however the basal NADP+/NADPH ratio is higher and treatment causes divergent changes. 8C) Growth rates are less affected by vemurafenib, PD-0325901, cobimetinib, and PLX7904 due to sgGAPDHS targeting. Significance using 2-sided, 2-sample t-test; *p<0.05; **p<0.01.
We generated short-guide RNA (sgRNA) for CRISPR/Cas9-mediated genome-editing within the pLentiCRISPRv2 system to assess whether GAPDHS regulates sensitivity to BRAF-targeted drugs through the metabolic state. […] (FIG. 8C). […] We will expand these analyses to also include SKMEL28 and UACC62, and assess dabrafenib and encorafenib. We will also measure basal and changes following BRAF/MEK-inhibitor on the inherent metabolic state, measured as NAD(P)+/NAD(P)H ratios and GAPDH/S activity.

A further data set concerns SKMEL2(NRAS-Q61R). Put plainly: drug-mediated growth inhibition as percentage of baseline doubling rate. The format is cell-based. The note with it: NRAS-mutant SKMEL2. An excerpt: FIGS. 5A-5B. Response to BRAF/MEK inhibition in melanoma cells was associated with the inherent metabolic state. 5A) Effects on cell doubling rates caused by vemurafenib and PD0325901 treatment in melanoma and carcinoma cell lines. […] 5B) Pearson metric of PD-0325901 growth rate effects used on gene-level transcription data (HuExon 1.0ST) for Gene Set Enrichment Analysis (GSEA) identified specific pathways associated with sensitivity, particularly oxidative phosphorylation, and resistance to BRAF/MEK inhibition.
Because melanoma cells undergo metabolic shift in response to BRAF- and MEK-targeted therapy, we wanted to characterize the drug sensitivities across a melanoma cell line cohort (FIG. 4A). To ensure that rapidly growing cells versus slow were compared in a normalized manner, we assessed the degree of drug-mediated growth inhibition as percentage of the baseline doubling rate for each cell line (FIG. 5A). This approach was based on classical chemotherapy effect measures [26;27 recently used by others].

For `Cc1nc(NC(=O)N2CCC[C@H]2C(N)=O)sc1-c1ccnc(C(C)(C)C(F)(F)F)c1` [BYL719], in the data set with Malme3M, the “sensitivity (measured as growth rate effect) of sgGAPDHS cells versus control” value is “did not, however, observe reduced sensitivity”.
Turning to `O=C(NOC[C@H](O)CO)c1ccc(F)c(F)c1Nc1ccc(I)cc1F` [PD-0325901], the “sensitivity (measured as growth rate effect) of sgGAPDHS cells versus control” value in the data set with Malme3M is recorded as “reduced sensitivity”.
Still for that read-out and setting: then `CCN(C)S(=O)(=O)Nc1ccc(F)c(C(=O)c2c[nH]c3ncc(-c4cnc(C5CC5)nc4)cc23)c1F` [PLX7904], with “reduced sensitivity”; and `O=C(c1ccc(F)c(F)c1Nc1ccc(I)cc1F)N1CC(O)([C@@H]2CCCCN2)C1` [cobimetinib], with “reduced sensitivity”.
With `CCCS(=O)(=O)Nc1ccc(F)c(C(=O)c2c[nH]c3ncc(-c4ccc(Cl)cc4)cc23)c1F` [vemurafenib], in the data set with SKMEL2(NRAS-Q61R), the “doubling rate under BRAF inhibitor, % of normal doubling rate” value is on record as 100%.
